In the supplement of paper PMC10307832:

Key:
Assay in all cases: relative viability (nuclei count vs DMSO), 5 days (fraction); higher = more cells survive
[1] = test system: LCLC-103H
Outline: (§1)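 Nuclei were stained with Hoechst during a one-step fixation (final 0.05% Triton X-100, 1% formaldehyde, 1 ug/ml Hoechst) carried out 5 days after dosing, then counted on 4× images. The cells, lung cancer lines in 1536-well plates, had been dosed by pin tool the day after seeding with one drug alone or a fixed anchor-drug dose plus five library-drug doses (not always all listed) in √10 steps. Relative viability is the nuclei count in treated wells divided by that in vehicle wells, and each value is the median of duplicate plates.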

[2] = test system: LXF-289
Outline: as §1

[3] = test system: NCI-H1355
Outline: as §1

[4] = test system: NCI-H1563
Outline: as §1

[5] = test system: NCI-H1651
Outline: as §1

[6] = test system: NCI-H1755
Outline: as §1

[7] = test system: NCI-H1792
Outline: as §1

[8] = test system: NCI-H1915
Outline: as §1

[9] = test system: NCI-H2170
Outline: as §1

[10] = test system: NCI-H2347
Outline: as §1

[11] = test system: NCI-H3122
Outline: as §1

[12] = test system: NCI-H322M
Outline: as §1

[13] = test system: NCI-H441
Outline: as §1

[14] = test system: NCI-H460
Outline: as §1

[15] = test system: NCI-H520
Outline: as §1

[16] = test system: NCI-H596
Outline: as §1

[17] = test system: NCI-H650
Outline: as §1

[18] = test system: NCI-H661
Outline: as §1

[19] = test system: NCI-H727
Outline: as §1

[20] = test system: PC-14
Outline: as §1

[21] = test system: RERF-LC-KJ
Outline: as §1

[22] = test system: SK-MES-1
Outline: as §1

## CC(C)Oc1cc(Nc2nc(N[C@@H](C)c3ccc(F)cn3)ncc2Cl)n[nH]1 [AZ23] + Cc1nc(NC(=O)N2CCC[C@H]2C(N)=O)sc1-c1ccnc(C(C)(C)C(F)(F)F)c1 [Alpelisib] (partner 2 µM)
[1]; first compound 0.01 µM
  relative viability: 0.953
[1]; first compound 0.03162 µM
  relative viability: 1.01
[1]; first compound 0.3162 µM
  relative viability: 0.996
[2]; first compound 0.01 µM
  relative viability: 1.15
[2]; first compound 0.03162 µM
  relative viability: 1.08
[2]; first compound 0.3162 µM
  relative viability: 1.05
[3]; first compound 0.01 µM
  relative viability: 0.876
[3]; first compound 0.03162 µM
  relative viability: 0.873
[3]; first compound 0.3162 µM
  relative viability: 0.782
[4]; first compound 0.01 µM
  relative viability: 0.895
[4]; first compound 0.03162 µM
  relative viability: 0.961
[4]; first compound 0.3162 µM
  relative viability: 0.899
[5]; first compound 0.01 µM
  relative viability: 0.773
[5]; first compound 0.03162 µM
  relative viability: 1.05
[5]; first compound 0.3162 µM
  relative viability: 1.16
[6]; first compound 0.01 µM
  relative viability: 1.12
[6]; first compound 0.03162 µM
  relative viability: 1.05
[6]; first compound 0.3162 µM
  relative viability: 1.09
[7]; first compound 0.01 µM
  relative viability: 1.08
[7]; first compound 0.03162 µM
  relative viability: 0.831
[7]; first compound 0.3162 µM
  relative viability: 0.83
[8]; first compound 0.01 µM
  relative viability: 1.17
[8]; first compound 0.03162 µM
  relative viability: 1.09
[8]; first compound 0.3162 µM
  relative viability: 1.04
[9]; first compound 0.01 µM
  relative viability: 0.87
[9]; first compound 0.03162 µM
  relative viability: 0.887
[9]; first compound 0.3162 µM
  relative viability: 0.831
[10]; first compound 0.01 µM
  relative viability: 1.06
[10]; first compound 0.03162 µM
  relative viability: 1.09
[10]; first compound 0.3162 µM
  relative viability: 1.08
[11]; first compound 0.01 µM
  relative viability: 0.811
[11]; first compound 0.03162 µM
  relative viability: 0.827
[11]; first compound 0.3162 µM
  relative viability: 0.77
[12]; first compound 0.01 µM
  relative viability: 0.774
[12]; first compound 0.03162 µM
  relative viability: 0.774
[12]; first compound 0.3162 µM
  relative viability: 0.823
[13]; first compound 0.01 µM
  relative viability: 1.05
[13]; first compound 0.03162 µM
  relative viability: 0.621
[13]; first compound 0.3162 µM
  relative viability: 0.576
[14]; first compound 0.01 µM
  relative viability: 0.429
[14]; first compound 0.03162 µM
  relative viability: 0.598
[14]; first compound 0.3162 µM
  relative viability: 0.48
[15]; first compound 0.01 µM
  relative viability: 1.06
[15]; first compound 0.03162 µM
  relative viability: 0.988
[15]; first compound 0.3162 µM
  relative viability: 0.752
[16]; first compound 0.01 µM
  relative viability: 0.51
[16]; first compound 0.03162 µM
  relative viability: 0.528
[16]; first compound 0.3162 µM
  relative viability: 0.418
[17]; first compound 0.01 µM
  relative viability: 1.03
[17]; first compound 0.03162 µM
  relative viability: 1.19
[17]; first compound 0.3162 µM
  relative viability: 1.16
[18]; first compound 0.01 µM
  relative viability: 0.629
[18]; first compound 0.03162 µM
  relative viability: 0.686
[18]; first compound 0.3162 µM
  relative viability: 0.908
[19]; first compound 0.01 µM
  relative viability: 0.634
[19]; first compound 0.03162 µM
  relative viability: 0.628
[19]; first compound 0.3162 µM
  relative viability: 0.601
[20]; first compound 0.01 µM
  relative viability: 0.897
[20]; first compound 0.03162 µM
  relative viability: 1.13
[20]; first compound 0.3162 µM
  relative viability: 1.06
[21]; first compound 0.01 µM
  relative viability: 0.714
[21]; first compound 0.03162 µM
  relative viability: 0.925
[21]; first compound 0.3162 µM
  relative viability: 0.845
[22]; first compound 0.01 µM
  relative viability: 1.01
[22]; first compound 0.03162 µM
  relative viability: 0.997
[22]; first compound 0.3162 µM
  relative viability: 1.06

## Clc1ccc(Nc2nnc(Cc3ccncc3)c3ccccc23)cc1 [Vatalanib] + CS(=O)(=O)CCNCc1ccc(-c2ccc3ncnc(Nc4ccc(OCc5cccc(F)c5)c(Cl)c4)c3c2)o1 [Lapatinib] (partner 2 µM)
[2]; first compound 0.04 µM
  relative viability: 0.959
[2]; first compound 0.1265 µM
  relative viability: 0.82
[2]; first compound 0.4 µM
  relative viability: 0.98
[2]; first compound 1.265 µM
  relative viability: 0.891
[2]; first compound 4 µM
  relative viability: 0.904
[3]; first compound 0.04 µM
  relative viability: 1.02
[3]; first compound 0.1265 µM
  relative viability: 0.934
[3]; first compound 0.4 µM
  relative viability: 1.14
[3]; first compound 1.265 µM
  relative viability: 0.86
[3]; first compound 4 µM
  relative viability: 0.887
[4]; first compound 0.04 µM
  relative viability: 0.994
[4]; first compound 0.1265 µM
  relative viability: 0.91
[4]; first compound 0.4 µM
  relative viability: 1.12
[4]; first compound 1.265 µM
  relative viability: 0.945
[4]; first compound 4 µM
  relative viability: 0.777
[5]; first compound 0.04 µM
  relative viability: 0.921
[5]; first compound 0.1265 µM
  relative viability: 0.868
[5]; first compound 0.4 µM
  relative viability: 0.947
[5]; first compound 1.265 µM
  relative viability: 0.899
[5]; first compound 4 µM
  relative viability: 0.835
[6]; first compound 0.04 µM
  relative viability: 1.02
[6]; first compound 0.1265 µM
  relative viability: 1.02
[6]; first compound 0.4 µM
  relative viability: 1.09
[6]; first compound 1.265 µM
  relative viability: 0.946
[6]; first compound 4 µM
  relative viability: 0.951
[7]; first compound 0.04 µM
  relative viability: 0.892
[7]; first compound 0.1265 µM
  relative viability: 0.852
[7]; first compound 0.4 µM
  relative viability: 0.966
[7]; first compound 1.265 µM
  relative viability: 0.87
[7]; first compound 4 µM
  relative viability: 0.877
[8]; first compound 0.04 µM
  relative viability: 0.974
[8]; first compound 0.1265 µM
  relative viability: 0.88
[8]; first compound 0.4 µM
  relative viability: 0.839
[8]; first compound 1.265 µM
  relative viability: 0.93
[8]; first compound 4 µM
  relative viability: 1.01
[9]; first compound 0.04 µM
  relative viability: 0.261
[9]; first compound 0.1265 µM
  relative viability: 0.268
[9]; first compound 0.4 µM
  relative viability: 0.286
[9]; first compound 1.265 µM
  relative viability: 0.261
[9]; first compound 4 µM
  relative viability: 0.264
[10]; first compound 0.04 µM
  relative viability: 1.01
[10]; first compound 0.1265 µM
  relative viability: 0.858
[10]; first compound 0.4 µM
  relative viability: 0.931
[10]; first compound 1.265 µM
  relative viability: 0.907
[10]; first compound 4 µM
  relative viability: 0.833
[11]; first compound 0.04 µM
  relative viability: 1.01
[11]; first compound 0.1265 µM
  relative viability: 1.01
[11]; first compound 0.4 µM
  relative viability: 1.01
[11]; first compound 1.265 µM
  relative viability: 0.977
[11]; first compound 4 µM
  relative viability: 0.97
[12]; first compound 0.04 µM
  relative viability: 0.493
[12]; first compound 0.1265 µM
  relative viability: 0.637
[12]; first compound 0.4 µM
  relative viability: 0.509
[12]; first compound 1.265 µM
  relative viability: 0.561
[12]; first compound 4 µM
  relative viability: 0.535
[14]; first compound 0.04 µM
  relative viability: 1.04
[14]; first compound 0.1265 µM
  relative viability: 0.848
[14]; first compound 0.4 µM
  relative viability: 0.931
[14]; first compound 1.265 µM
  relative viability: 0.845
[14]; first compound 4 µM
  relative viability: 0.898
[15]; first compound 0.04 µM
  relative viability: 0.94
[15]; first compound 0.1265 µM
  relative viability: 0.711
[15]; first compound 0.4 µM
  relative viability: 0.891
[15]; first compound 1.265 µM
  relative viability: 0.741
[15]; first compound 4 µM
  relative viability: 0.82
[16]; first compound 0.04 µM
  relative viability: 1.07
[16]; first compound 0.1265 µM
  relative viability: 1.22
[16]; first compound 0.4 µM
  relative viability: 1.14
[16]; first compound 1.265 µM
  relative viability: 1.03
[16]; first compound 4 µM
  relative viability: 1.16
[17]; first compound 0.04 µM
  relative viability: 0.694
[17]; first compound 0.1265 µM
  relative viability: 0.784
[17]; first compound 1.265 µM
  relative viability: 0.784
[17]; first compound 4 µM
  relative viability: 0.911
[18]; first compound 0.04 µM
  relative viability: 0.505
[18]; first compound 0.1265 µM
  relative viability: 0.384
[18]; first compound 0.4 µM
  relative viability: 0.518
[18]; first compound 1.265 µM
  relative viability: 0.524
[18]; first compound 4 µM
  relative viability: 0.496
[19]; first compound 0.04 µM
  relative viability: 0.806
[19]; first compound 0.1265 µM
  relative viability: 0.717
[19]; first compound 0.4 µM
  relative viability: 0.9
[19]; first compound 1.265 µM
  relative viability: 0.709
[19]; first compound 4 µM
  relative viability: 1.02
[20]; first compound 0.04 µM
  relative viability: 0.377
[20]; first compound 0.1265 µM
  relative viability: 0.306
[20]; first compound 0.4 µM
  relative viability: 0.334
[20]; first compound 1.265 µM
  relative viability: 0.315
[20]; first compound 4 µM
  relative viability: 0.288
[21]; first compound 0.04 µM
  relative viability: 0.812
[21]; first compound 0.1265 µM
  relative viability: 0.842
[21]; first compound 0.4 µM
  relative viability: 0.854
[21]; first compound 1.265 µM
  relative viability: 0.775
[21]; first compound 4 µM
  relative viability: 0.698
[22]; first compound 0.04 µM
  relative viability: 0.516
[22]; first compound 0.1265 µM
  relative viability: 0.457
[22]; first compound 0.4 µM
  relative viability: 0.464
[22]; first compound 1.265 µM
  relative viability: 0.462
[22]; first compound 4 µM
  relative viability: 0.429
